{"source": "patent US8946198B2", "about": "“Estrogen replacement regimen” (priority 2002, dated 2015)", "key": {"progesterone receptors": {"target": "T1, progesterone receptors (Homo sapiens, UniProt P06401)", "T1 sequence (P06401 1-933)": "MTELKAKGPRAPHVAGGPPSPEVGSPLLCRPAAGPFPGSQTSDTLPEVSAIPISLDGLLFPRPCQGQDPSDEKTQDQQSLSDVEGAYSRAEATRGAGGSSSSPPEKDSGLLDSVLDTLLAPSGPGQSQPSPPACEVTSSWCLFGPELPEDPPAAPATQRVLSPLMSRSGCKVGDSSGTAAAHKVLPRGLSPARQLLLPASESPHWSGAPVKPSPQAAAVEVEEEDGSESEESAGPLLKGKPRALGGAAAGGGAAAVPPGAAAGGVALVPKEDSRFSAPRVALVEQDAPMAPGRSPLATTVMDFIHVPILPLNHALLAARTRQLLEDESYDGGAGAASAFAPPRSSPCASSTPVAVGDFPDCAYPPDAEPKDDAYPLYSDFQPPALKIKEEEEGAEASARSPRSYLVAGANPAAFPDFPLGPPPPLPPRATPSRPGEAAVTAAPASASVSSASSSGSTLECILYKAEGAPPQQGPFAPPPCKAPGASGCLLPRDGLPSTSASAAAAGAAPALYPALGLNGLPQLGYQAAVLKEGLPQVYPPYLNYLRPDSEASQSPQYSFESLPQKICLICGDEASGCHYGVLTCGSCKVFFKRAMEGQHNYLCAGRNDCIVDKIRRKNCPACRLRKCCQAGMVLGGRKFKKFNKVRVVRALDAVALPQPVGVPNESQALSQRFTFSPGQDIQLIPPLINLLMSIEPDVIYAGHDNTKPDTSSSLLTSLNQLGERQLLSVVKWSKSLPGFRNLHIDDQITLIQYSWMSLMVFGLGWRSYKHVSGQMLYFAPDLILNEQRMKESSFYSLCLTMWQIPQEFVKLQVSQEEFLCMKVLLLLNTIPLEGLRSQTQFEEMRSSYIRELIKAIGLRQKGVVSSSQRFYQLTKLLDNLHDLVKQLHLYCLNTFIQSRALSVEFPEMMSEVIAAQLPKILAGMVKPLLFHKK", "conditions": "cited from earlier work"}, "[1]": {"target": "T2, human sex-hormone-binding globulin (SHBG) (Homo sapiens, UniProt P04278)", "T2 sequence (P04278 30-402)": "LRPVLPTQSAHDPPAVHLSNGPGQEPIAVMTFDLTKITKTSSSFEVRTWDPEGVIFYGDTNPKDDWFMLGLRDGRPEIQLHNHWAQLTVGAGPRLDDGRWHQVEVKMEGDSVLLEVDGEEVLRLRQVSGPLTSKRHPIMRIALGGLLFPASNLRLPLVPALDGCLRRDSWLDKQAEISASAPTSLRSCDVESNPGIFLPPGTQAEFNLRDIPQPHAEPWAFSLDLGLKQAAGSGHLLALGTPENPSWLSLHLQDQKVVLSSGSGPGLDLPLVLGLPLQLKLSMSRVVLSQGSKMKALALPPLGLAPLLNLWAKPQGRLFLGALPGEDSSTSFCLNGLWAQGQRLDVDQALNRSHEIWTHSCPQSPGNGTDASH", "conditions": "cited from earlier work"}, "[2]": {"tested_on": "non-pregnant, oophorectomized ewes", "experiment": "Uterine blood flow, MAP and heart rate during bolus vs continuous estradiol, first phase", "assay_type": "in vivo, sheep", "protocol": "In the study, fifteen non-pregnant, oophorectomized ewes were implanted with doppler flow probes (Transonic System, Ithaca, N.Y.) on the uterine artery and indwelling catheters were placed in the femoral artery and vein for mean arterial pressure (MAP) measurements and estrogen administration respectively. All animals were oophorectomized. MAP, heart rate (HR) and uterine blood flow (UBF) were recorded for 30 minutes daily for 14 days after at least 60 minutes of adaptation in the recording room. A baseline for each parameter of each sheep was established by averaging values obtained from day 8 through 14 after the last surgery. On day 14, sheep were divided randomly into three groups consisting of 5 animals each. […] The third group (Control) served as a vehicle control. Treatment groups received estrogen from day 15 through 28 and parameters were recorded daily throughout this period. […] It seems that none of the outcome parameters achieved a steady state during the study period."}, "[3]": {"tested_on": "non-pregnant, oophorectomized ewes", "experiment": "Restoration of the uterine blood flow response after continuous infusion, second phase", "assay_type": "in vivo, sheep", "conditions": "after continuous infusion 220 μg day 15-28", "protocol": "In the second phase of the study an ultra-low dose of estrogen (0.01 μg/Kg) was administered to try to restore the response, which was most diminished in the first phase of the study by continuous infusion. The second phase of the study involved continuous infusion of 220 μg of estradiol from day 15 to 28 in another 15 sheep followed by randomization into 3 groups (See FIG. 1). […] UBF was measured throughout the study."}, "estrogen receptor (ER)": {"tested_on": "estrogen receptor (ER)", "conditions": "ovariectomized non-pregnant sheep, myometrium and endometrium; cited from earlier work"}, "[4]": {"conditions": "continuous iv infusion 220 μg daily"}}}
{"smiles": "C#C[C@]1(OC(C)=O)CC[C@H]2[C@@H]3CCC4=CC(=NO)CC[C@@H]4[C@H]3CC[C@@]21CC", "note": "(mixture of isomers) [norgestimate]", "values": [{"measurement": "binding to progesterone receptors", "setting": "progesterone receptors", "result": "bind to progesterone receptors"}, {"measurement": "affinity for SHBG", "setting": "[1]", "result": "lack of affinity"}]}
{"smiles": "C[C@]12CC[C@@H]3c4ccc(O)cc4CC[C@H]3[C@@H]1CC[C@@H]2O", "note": "[17β-estradiol]", "values": [{"measurement": "HR on the first day", "setting": "[2]; [4]", "result": "increased significantly"}, {"measurement": "HR on the second day", "setting": "[2]; [4]", "result": "dropped to baseline levels"}, {"measurement": "MAP decrease in the first two days", "setting": "[2]; [4]", "result": "8.6±4", "unit": "%"}, {"measurement": "increase in UBF at two days of treatment", "setting": "[2]; [4]", "result": "1854.2±527.9", "unit": "%"}, {"measurement": "UBF for the next 12 days of the study", "setting": "[2]; continuous iv infusion 220 μg daily, after day 2 of treatment", "result": "returned almost to baseline levels"}, {"measurement": "MAP during the rest of the study", "setting": "[2]; continuous iv infusion 220 μg daily, after the first two days", "result": "gradually increased to baseline levels"}, {"measurement": "UBF after 24 hours (before the next bolus)", "setting": "[2]; daily single iv bolus 10 μg/kg", "result": "returned almost to baseline levels"}, {"measurement": "daily intermittent increase in HR", "setting": "[2]; daily single iv bolus 10 μg/kg", "result": "15-20%"}, {"measurement": "effect on MAP (mean arterial pressure)", "setting": "[2]; daily single iv bolus 10 μg/kg", "result": "did not affect MAP"}, {"measurement": "HR decrease to levels below the baseline after 24 hours", "setting": "[2]; daily single iv bolus 10 μg/kg, 24 hours after bolus", "result": "8-10%"}, {"measurement": "increase in UBF (uterine blood flow), start of gradual increase", "setting": "[2]; daily single iv bolus 10 μg/kg, start of the gradual increase in the first 4 days, vs baseline", "result": "489±206.5", "unit": "%"}, {"measurement": "UBF response to standard bolus doses after 2 days of ultra-low boluses", "setting": "[3]; 0.01 μg/Kg bolus 2 days, then standard daily bolus (printed 1 μg/Kg) for 3 days (FIG. 4)", "result": "complete response"}, {"measurement": "UBF response to standard bolus doses after 2 days of standard boluses", "setting": "[3]; 10 μg/Kg bolus 2 days, then 10 μg/Kg for 3 more days (FIG. 3)", "result": "no response at all"}, {"measurement": "UBF response to standard bolus doses after 2 days of saline boluses", "setting": "[3]; saline 2 days, then 10 μg/Kg bolus daily for 3 days (FIG. 2)", "result": "partial response"}, {"measurement": "effect on ER expression at physiologic concentrations", "setting": "estrogen receptor (ER)", "result": "promoted ER expression"}, {"measurement": "effect on ER expression at supra-physiologic doses", "setting": "estrogen receptor (ER)", "result": "inhibited ER expression"}]}
{"smiles": "C#C[C@]1(O)CC[C@H]2[C@@H]3CCC4=CCCC[C@@H]4[C@H]3C(=C)C[C@@]21CC", "note": "[desogestrel, 13-ethyl-11-methylene-18,19-dinor-17 alpha-pregn-4-en-20-yn-17-ol]", "values": [{"measurement": "binding to progesterone receptors", "setting": "progesterone receptors", "result": "bind to progesterone receptors"}, {"measurement": "affinity for SHBG", "setting": "[1]", "result": "lack of affinity"}]}
